Among the data in US20130261132A1, “CALCIUM-SENSING RECEPTOR-ACTIVE COMPOUNDS” (LEO PHARMA A/S, priority 2010, published 2013) are EC50 values, retold here.

Usually EC50 stands for the midpoint of the concentration-response curve. High values mean a less potent agent, low ones a more potent agent.

Bounds are passed on as bounds.

The experiment has as its target T1, human CaSR (Homo sapiens, UniProt P41180).
T1 sequence (P41180 20-1078): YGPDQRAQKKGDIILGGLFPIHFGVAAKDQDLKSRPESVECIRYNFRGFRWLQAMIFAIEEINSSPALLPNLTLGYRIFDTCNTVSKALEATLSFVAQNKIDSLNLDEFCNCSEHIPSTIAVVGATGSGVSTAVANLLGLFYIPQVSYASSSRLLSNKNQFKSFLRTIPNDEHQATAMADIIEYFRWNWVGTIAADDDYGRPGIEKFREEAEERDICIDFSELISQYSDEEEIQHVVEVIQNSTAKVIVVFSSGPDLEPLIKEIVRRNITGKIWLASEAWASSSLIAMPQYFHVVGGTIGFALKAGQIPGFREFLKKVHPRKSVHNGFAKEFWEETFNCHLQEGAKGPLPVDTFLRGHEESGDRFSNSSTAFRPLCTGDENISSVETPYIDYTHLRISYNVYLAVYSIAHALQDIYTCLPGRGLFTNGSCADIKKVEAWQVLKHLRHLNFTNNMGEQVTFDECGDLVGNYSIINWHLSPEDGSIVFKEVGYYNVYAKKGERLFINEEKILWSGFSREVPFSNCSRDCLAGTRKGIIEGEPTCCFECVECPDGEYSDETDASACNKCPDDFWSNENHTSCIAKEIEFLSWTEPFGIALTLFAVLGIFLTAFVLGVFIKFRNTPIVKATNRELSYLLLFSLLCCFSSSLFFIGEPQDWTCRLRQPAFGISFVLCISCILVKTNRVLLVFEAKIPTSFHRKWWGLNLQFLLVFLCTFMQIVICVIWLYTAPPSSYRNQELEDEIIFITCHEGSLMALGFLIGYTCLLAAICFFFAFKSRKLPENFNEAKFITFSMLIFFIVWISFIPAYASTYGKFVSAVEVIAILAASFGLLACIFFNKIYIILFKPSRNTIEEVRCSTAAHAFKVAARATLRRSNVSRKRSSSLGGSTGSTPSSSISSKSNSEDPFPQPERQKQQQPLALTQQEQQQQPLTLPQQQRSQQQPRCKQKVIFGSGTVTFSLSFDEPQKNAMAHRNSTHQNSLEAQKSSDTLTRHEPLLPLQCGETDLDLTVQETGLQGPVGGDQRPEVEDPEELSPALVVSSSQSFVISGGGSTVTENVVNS
The experiment is described as follows: Functional whole cell assay (modulation of human CaSR), IP1 accumulation in CHO-K1 cells. It counts as cell-based. To be noted: CHO-K1 cells stably expressing human CaSR, final Ca2+ 1.9 mM, IP1 readout; concentration producing 50% of maximum agonistic response. The text has this: The assay investigates a compound's functional ability to act as a biological positive modulator on the human CaSR. Activation of the receptor expressed on CHO-K1 cells is detected through the G alpha q pathway, the activation of phospholipase C and the accumulation of intracellular inositol phosphate (IP) as described earlier [Sandrine Ferry, Bruno Chatel, Robert H. Dodd, Christine Lair, Danielle Gully, Jean-Pierre Maffrand, and Martial Ruat. Effects of Divalent Cations and of a Calcimimetic on Adrenocorticotropic Hormone Release in Pituitary Tumor Cells. Biochemical and biophysical research Communications 238, 866-873 (1997)]. The human CaSR is stably expressed on a CHO-K1 cell clone, stimulated with a basal level of calcium and challenged with the tested compound. The level of IP1 is determined using the IP-One Terbium htrf kit (Cisbio, France). CHO-K1 cells not transfected with the CaSR fail to elicit an IP1 response upon calcium and/or compound stimulation.
The ORF coding for the human CaSR (genebank: NM_000388) was acquired from Invitrogen Corp, USA and subsequently cloned into the mammalian expression vector pCDA3.1.
CHO-K1 cells were transfected using Lipofectamine according to manufacturer's protocol (400.000 cells/well were seeded in a 6-well plate and transfected after 24 hours using 2 μg DNA and 5 μl lipofectamine). After another 24 hours the cells were detached, seeded and subjected to 1 mg/ml of G-418. Following 7 days growth single clones were picked, the CaSR expression evaluated using the 5C10 antibody against CaSR, the clones with the highest expression were selected and tested for functional response. The preferred clone was cultured according to standard procedures described in ATCC (American Type Culture Collection) protocols for CHO-K1 with the addition of 500 μg/ml G-418.
On the assay day, cells were thawed, harvested and resuspended to 4*10^6 cells/ml in stimulation buffer (containing: Hepes 10 mM, MgCl2 0.5 mM, KCl 4.2 mM, NaCl 146 mM, glucose 5.5 mM, LiCl 50 mM, BSA 0.5% at pH 7.4). Ten μl cell solution was pipetted into wells of a white 384-well plate (Perkin Elmer Optiplate) containing 2 μl compound diluted in assay buffer (containing: Hepes 10 mM, MgCl2 0.5 mM, KCl 4.2 mM, NaCl 146 mM, glucose 5.5 mM, LiCl 50 mM, CaCl2 11.4 mM at pH 7.4), resulting in a final Ca^2+ concentration of 1.9 mM. After compound stimulation for 1 hour at 37° C. and 15 min at room temperature, 10 ul of IP-One assay detection reagent (prepared as described by the IP-One assay kit manufacturer) was added and the plate was incubated for another 1 hour at room temperature. Finally the plate was read using a Perkin Elmer EnVision, according to the protocol supplied by the IP-One assay kit manufacturer. The FRET ratio was calculated by dividing the 665 nm emission signal with that of the 615 nm.
The molar concentration of a compound that produces 50% of the maximum agonistic response (the […] value) is calculated according to the equation “General sigmoidal curve with Hill slope, a to d” (Equation 1). This model describes a sigmoidal curve with an adjustable baseline. The equation can be used to fit curves where response is either increasing or decreasing with respect to the independent variable, X. […]
y=(a−d)/(1+(x/c)̂b)+d Equation 1 x=concentration of tested compound […]
a=min response as compound concentration approaches 0 d=max response as concentration of tested compound is increasing […]
b=Hill coefficient or curve slope
As for `COc1cc([C@@H](C)N[C@H]2CC[C@@H](c3ccc(OCC(=O)N4CCNCC4)cc3)C2)ccc1F` [Compound 103, 2-[4-[(1R,3S)-3-[[(1R)-1-(4-Fluoro-3-methoxy-phenyl)ethyl]-amino]-cyclopentyl]phenoxy]-1-piperazin-1-yl-ethanone], the EC50 was less than 200 nM.

On to `COc1cc([C@@H](C)N[C@H]2CC[C@@H](c3ccc(OCC(=O)NCCS(N)(=O)=O)cc3)C2)ccc1F` [Compound 104, 2-[4-[(1R,3S)-3-[[(1R)-1-(4-Fluoro-3-methoxy-phenyl)ethyl]-amino]-cyclopentyl]phenoxy]-N-(2-sulfamoylethyl)acetamide], for which the EC50 was less than 200 nM.

Regarding `COc1cc([C@@H](C)N[C@H]2CC[C@@H](c3ccc(OCC(=O)NCCNCCO)cc3)C2)ccc1F` [Compound 106, 2-[4-[(1R,3S)-3-[[(1R)-1-(4-Fluoro-3-methoxy-phenyl)ethyl]-amino]-cyclopentyl]phenoxy]-N-[2-(2-hydroxyethylamino)ethyl]acetamide], the EC50 is less than 200 nM.

On to `COc1cc([C@@H](C)N[C@H]2CC[C@@H](c3ccc(OCC(=O)NCCNS(C)(=O)=O)cc3)C2)ccc1F` [Compound 108, 2-[4-[(1R,3S)-3-[[(1R)-1-(4-Fluoro-3-methoxy-phenyl)ethyl]-amino]-cyclopentyl]phenoxy]-N-[2-(methanesulfonamido)ethyl]acetamide], for which the EC50 is less than 200 nM.

For `COc1cc([C@@H](C)N[C@H]2CC[C@@H](c3ccc(OCC(=O)N4CCN(C(C)=O)CC4)cc3)C2)ccc1F` [Compound 109, 1-(4-Acetylpiperazin-1-yl)-2-[4-[(1R,3S)-3-[[(1R)-1-(4-fluoro-3-methoxy-phenyl)ethyl]amino]cyclopentyl]phenoxy]ethanone], the EC50 was less than 200 nM.

As to `COc1cc([C@@H](C)N[C@H]2CC[C@@H](c3ccc(OCC(=O)N4CCN(S(N)(=O)=O)CC4)cc3)C2)ccc1F` [Compound 110, 4-[2-[4-[(1R,3S)-3-[[(1R)-1-(4-Fluoro-3-methoxy-phenyl)-ethyl]-amino]cyclopentyl]phenoxy]acetyl]piperazine-1-sulfonamide], the EC50 is less than 200 nM.

In turn, `C[C@@H](N[C@H]1CC[C@@H](c2ccc(OCC(=O)NC3CCNCC3)cc2)C1)c1cccc2ccccc12` [Compound 112, 2-[4-[(1R,3S)-3-[[(1R)-1-(1-Naphthyl)ethyl]amino]cyclopentyl]-phenoxy]-N-(4-piperidyl)acetamide] registered an EC50 of less than 200 nM.
